Earlier results on 15 compounds are cited in patent publication US20050003341A1, “Drug discovery assays based on the biology of atherosclerosis, cancer, and alopecia” (priority 2003, published 2005).

One data set concerns TF. The conditions noted are these: for Cu^+2 induced procoagulant activity: probucol 20, vitamin E 50, BHT 50, U74389G 20 μmol/L.
Data set [1] has as its system cell attachment to fibronectin. As to conditions: for cell attachment to coated plates: six ocular melanoma cell lines (Mac Neil 1994A).
The subject of the next data set is apo(a) transgenic mice. The conditions noted are these: 15 μg, 12 weeks.
Setting [2] is: a variety of cells, cited studies.
Setting [3] is: Peterziel 1999, dependent on presence of AR.

Read-outs that look alike come from different tables or passages of the source.

As for `CNc1ccc2oc(C[C@H]3O[C@@]4(CC[C@H]3C)O[C@H]([C@H](C)C(=O)c3ccc[nH]3)[C@H](C)C[C@H]4C)nc2c1C(=O)O` [A 23187], in the data set on ERK (setting [2]), the ERK phosphorylation entry was “increase”. With `Cc1cc(C(C)(C)C)c(O)c(C(C)(C)C)c1` [BHT], in the data set with TF, the “Cu^+2 induced procoagulant activity” value is recorded as “inhibited”. With `[Cu+2]` [Cu^+2], in the data set on TF (10 hours, up to 20 μmol/L, without 8-hydroxyquinoline), the procoagulant activity result was “no effect”. Moreover, the “TF mRNA levels” value with TF (at 2 hours, relative to basal) is given as 50%. For the same compound, the “increase in TF mRNA” value in the data set on TF (at 6 hours) was 3.5 fold. For the compound `C[C@]12CCC(=O)C[C@@H]1CC[C@@H]1[C@@H]2CC[C@]2(C)[C@@H](O)CC[C@@H]12` [DHT, Dihydrotestosterone], in the data set with ERK, the ERK phosphorylation entry is given as “**The study reports no increase in ERK phosphorylation in LNCaP or PC-3 cells following treatment with DHT”; the Elk-1 transcription activity entry was “*The study also showed an increase in Elk-1 transcription activity following treatment with the androgen DHT, or the antiandrogens casodex and hydroxyflutamide. ERK phosphorylation activates Elk-1, which is a member of the ETS family”. Turning to `CCCCCCCCCCCCCC(=O)O[C@@H]1[C@@H](C)[C@@]2(O)[C@@H](C=C(CO)C[C@]3(O)C(=O)C(C)=C[C@@H]23)[C@@H]2C(C)(C)[C@]12OC(C)=O` [TPA, phorbol 12-myristate 13-acetate], the ERK phosphorylation result in the data set with ERK (setting [2]) was “increase”. As to `C[C@]12C=CC(=O)C=C1CC[C@@H]1C2=CC[C@]2(C)[C@@H](C(=O)CN3CCN(c4cc(N5CCCC5)nc(N5CCCC5)n4)CC3)CC[C@@H]12.O=C(O)/C=C\C(=O)O` [U74389G], the “Cu^+2 induced procoagulant activity” value in the data set on TF is “inhibited”. With `CC(O)(CS(=O)(=O)c1ccc(F)cc1)C(=O)Nc1ccc(C#N)c(C(F)(F)F)c1` (centres unmarked) [casodex], the Elk-1 transcription activity entry with ERK (setting [3]) was “*The study also showed an increase in Elk-1 transcription activity following treatment with the androgen DHT, or the antiandrogens casodex and hydroxyflutamide. ERK phosphorylation activates Elk-1, which is a member of the ETS family”. `CC[C@H]1CN2CCc3cc(OC)c(OC)cc3[C@@H]2C[C@@H]1C[C@H]1NCCc2cc(OC)c(OC)cc21` [emetine]: the “c-mos expression and ERK phosphorylation” value in the data set with ERK (starfish eggs) is reported as “inhibition”. For the compound `CC(C)(O)C(=O)Nc1ccc([N+](=O)[O-])c(C(F)(F)F)c1` [hydroxyflutamide], the Elk-1 transcription activity result with ERK (setting [3]) was “*The study also showed an increase in Elk-1 transcription activity following treatment with the androgen DHT, or the antiandrogens casodex and hydroxyflutamide. ERK phosphorylation activates Elk-1, which is a member of the ETS family”. For `C[C@H](CCC(=O)O)C[C@H](C)C[C@H](C)C(=O)/C=C(\O)[C@H](C)C[C@H](C)C/C=C/[C@@H](C)[C@@H](O)[C@@H](C)[C@@H](O)C[C@@H]1CC[C@@](C)([C@H]2CC[C@@](C)([C@@H](C)O)O2)O1` [ionomycin], the “cell attachment to coated plates” value in data set [1] was “Significant inhibition”. In the case of `CC(C)(Sc1cc(C(C)(C)C)c(O)c(C(C)(C)C)c1)Sc1cc(C(C)(C)C)c(O)c(C(C)(C)C)c1` [probucol], in the data set on TF, the “Cu^+2 induced procoagulant activity” value is “inhibited”. For `CC/C(=C(\c1ccccc1)c1ccc(OCCN(C)C)cc1)c1ccccc1` [tamoxifen], the “cell attachment to ECM, fibronectin, collagen type I or IV” value in data set [1] (ZR75-1 breast cancer cells (Millon 1989)) is on record as “decreased attachment”. Besides, the “cell attachment to fibronectin” value in data set [1] (retinal pigment epithelial (RPE) cells (Wagner 1995)) was “decreased attachment”. Moreover, the “cell attachment to coated plates” value in data set [1] is given as “significant inhibition”. Also, in the data set on apo(a) transgenic mice, the “decrease in area of focal apo(a) accumulation” value was 97%, the “decrease in average level of apo(a) in the vessel wall” value is on record as 69%, the “decrease in lesion area” value was 92% and the “decrease in number of lipid lesions” value is given as 80%. In the case of IL-1β: interleukin 1β, in the data set on isolated hair follicles (Hoffmann 1997, 6 days, A 23187 2 μM, TPA 1 μM, IL-1β 100 ng per ml), the hair growth result is recorded as “significantly inhibited hair growth”. The scalp hair growth entry with isolated hair follicles (Philpott 1996) is recorded as “inhibition”. Turning to estrogen, the ERK phosphorylation entry with ERK (setting [2]) was “increase”. For vitamin E, in the data set with TF, the “LPS induced TF expression” value is reported as “inhibited” and the “Cu^+2 induced procoagulant activity” value was “inhibited”.
